Measurements reported in patent US8058306B2, “Phenyl pyrrole aminoguanidine derivatives” (Action Pharma A/S, priority 2006, dated 2011).
“And” between values parts separate entries of the source, which are not always exact repeats. Identical values can stand only once. “Also recorded” adds a separate entry of the source. Like-named read-outs stand apart in the source and are kept apart here.

Test: Plasma kinetics in rat following intravenous and oral administration;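 as to AUC0-∞: parameter is AUC from zero to infinity in ng·h/mL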
Assay type: in vivo, Sprague Dawley rats
Conditions: for t1/2: Table XIV; for concentration at 0.05 h / concentration at 0.1 h / concentration at 0.25 h / concentration at 0.75 h / concentration at 1.5 h / concentration at 2.5 h / concentration at 4 h / concentration at 6 h / concentration at 8 h / concentration at 24 h: single intravenous 10 mg/kg
Protocol: This study determined the intravenous pharmacokinetics and oral bioavailability of compound 1 of the invention (see FIG. 1A, structure no. 1), compound 2 of the invention (see FIG. 1D, structure no. 19) and compound 3 of the invention (see FIG. 1I, structure no. 53) following administration to Sprague Dawley rats at a dose level of 10 mg/kg.
Six groups of 3 male rats received either a single intravenous or single oral administration of compound 1, 2 or 3 of the invention at a dose level of 10 mg/kg. Blood samples were obtained at various times after dosing. Plasma samples were analysed for unchanged test item using a suitable LC-MS/MS method. Pharmacokinetic parameters were estimated from individual plasma concentrations.
Eighteen male rats each received either a single intravenous or a single oral administration of either compound 1, 2 or 3 at a dose level of 10 mg/kg. The formulation was orally administered to each animal by gastric gavage and intravenously administered to each animal via a tail vein. The dose was administered at a dose volume of 5 mL/kg. The formulations were administered to each animal according to the details in the following table:
Blood samples (ca 0.3 mL) were removed from the femoral vein of each animal into tubes containing lithium heparin as anticoagulant.
Blood samples were collected from 3 rats at the following times after dose administration: • 3, 6, 15, 45 min and 1.5, 2.5, 4, 6, 8, 24 h post dose. Oral Administration
Blood samples were collected from 3 rats at the following times after dose administration: • 5, 15, 45 min and 1.5, 2.5, 4, 6, 8, 24 h post dose. Processing of Blood Samples
Pharmacokinetic parameters of compound 1, 2 and 3 were derived by non-compartmental analysis using WinNonLin Pro version 5.0.1 (Pharsight 2005). The following parameters were derived, where appropriate, from the individual plasma concentration versus time profiles:
• F % The absolute oral bioavailability calculated as [AUC0-t (oral)*Dose(iv)/AUC0-t (iv)*Dose (oral)]*100 based on mean values derived after oral and intravenous administration Consideration was given to the estimation of λz and corresponding t1/2 values. Three or more points are required within the terminal phase for λz and t1/2 to be estimated. The following additional variables were tabulated to aid identification of potentially unreliable estimates of t1/2 and AUC:
Pharmacokinetic parameters were reported as geometric mean except Tmax which was reported as the median. Geometric coefficient of variation was calculated as: […]
Actual sampling times were used for all calculations of pharmacokinetic parameters. Plasma concentrations that were below the limit of quantification were taken as zero for the pharmacokinetic analysis.

[1] = intravenous 10 mg/kg, male rats, individual animals, acetate, 10 mg/kg
[2] = male, Sprague Dawley, rat, plasma, iv, 10 mg/kg, male rats, individual animals, read-out: Sample Concentration in plasma
[3] = male, Sprague Dawley, rat, plasma, iv, 10 mg/kg, male rats, mean of 3, read-out: Mean Concentration in plasma
[4] = male, Sprague Dawley, rat, plasma, iv, 10 mg/kg, male rats, individual animals, LLOQ 2.50, read-out: Sample Concentration in plasma
[5] = male, Sprague Dawley, rat, plasma, iv, 10 mg/kg, male rats, mean, read-out: Mean Concentration in plasma

## N=C(N)NN=CC=Cc1cccn1-c1ccccc1Br [Compound 3, [1-(2-bromophenyl)-1H-pyrrol-2-yl-allylideneamino]guanidinium acetate]
Sprague Dawley, rat, plasma, 10 mg/kg oral vs intravenous, male rats, from mean AUC0-t, read-out: Mean absolute oral bioavailability
  bioavailability: 20.6%
Intravenous 10 mg/kg, male rats, Arithmetic Mean
  t1/2: 3.15 h
Intravenous 10 mg/kg, male rats, Geometric mean
  t1/2: 3.14 h
Intravenous 10 mg/kg, male rats, Median
  t1/2: 3.26 h
[1]
  t1/2: 3.26 h and 3.46 h and 2.74 h
  AUC0-∞: 1.911 µg·h/mL and 2.504 µg·h/mL
  AUC(0-t): 1.896 µg·h/mL and 2.258 µg·h/mL
  C0: 9.463 µg/mL and 4.924 µg/mL
  CL: 5.418 L/h/kg and 4.095 L/h/kg
  MRT: 2.53 h
  Vss: 13.694 L/kg and 13.225 L/kg
Intravenous 10 mg/kg, male rats
  Between-animal variability in systemic exposure, coefficient of variation (CV) of AUC0-t: less than 30%
Intravenous 10 mg/kg, rats
  Systemic clearance (in words): high
Intravenous 10 mg/kg, rats, total body water 668 mL/kg, acetate, 10 mg/kg
  volume of distribution compared with total body water (in words): exceeded the total body water; also recorded: markedly greater than that of the total body water
Intravenous 10 mg/kg, hepatic blood flow 3312 mL/h/kg
  systemic plasma clearance (CL) compared with hepatic blood flow (in words): greater than hepatic blood flow
male, Sprague Dawley, rat, plasma, iv, 10 mg/kg, intravenous 10 mg/kg, male rats, Arithmetic Mean
  AUC(0-inf): 2.5 µg·h/mL
male, Sprague Dawley, rat, plasma, iv, 10 mg/kg, intravenous 10 mg/kg, male rats, Arithmetic Mean, read-out: AUC0-t
  AUC(0-t): 2.41 µg·h/mL
male, Sprague Dawley, rat, plasma, iv, 10 mg/kg, intravenous 10 mg/kg, male rats, Arithmetic Mean, read-out: C0
  C0: 6.63 µg/mL
male, Sprague Dawley, rat, plasma, iv, 10 mg/kg, intravenous 10 mg/kg, male rats, Arithmetic Mean, read-out: CL (converted)
  clearance: 4.28 L/h/kg
male, Sprague Dawley, rat, plasma, iv, 10 mg/kg, intravenous 10 mg/kg, male rats, Arithmetic Mean, read-out: MRT
  MRT: 3.24 h
male, Sprague Dawley, rat, plasma, iv, 10 mg/kg, intravenous 10 mg/kg, male rats, Arithmetic Mean, read-out: Vss
  Vd: 13.4 L/kg
male, Sprague Dawley, rat, plasma, iv, 10 mg/kg, intravenous 10 mg/kg, male rats, Geometric mean
  AUC(0-inf): 2.46 µg·h/mL
male, Sprague Dawley, rat, plasma, iv, 10 mg/kg, intravenous 10 mg/kg, male rats, Geometric mean, read-out: AUC0-t
  AUC(0-t): 2.36 µg·h/mL
male, Sprague Dawley, rat, plasma, iv, 10 mg/kg, intravenous 10 mg/kg, male rats, Geometric mean, read-out: C0
  C0: 6.36 µg/mL
male, Sprague Dawley, rat, plasma, iv, 10 mg/kg, intravenous 10 mg/kg, male rats, Geometric mean, read-out: CL (systemic plasma clearance) (converted)
  clearance: 4.19 L/h/kg
male, Sprague Dawley, rat, plasma, iv, 10 mg/kg, intravenous 10 mg/kg, male rats, Geometric mean, read-out: MRT
  MRT: 3.19 h
male, Sprague Dawley, rat, plasma, iv, 10 mg/kg, intravenous 10 mg/kg, male rats, Geometric mean, read-out: Vss (mean apparent volume of distribution)
  Vd: 13.4 L/kg
male, Sprague Dawley, rat, plasma, iv, 10 mg/kg, intravenous 10 mg/kg, male rats, Geometric mean, read-out: t1/2 (mean apparent terminal half-life) (converted)
  half-life: 3.14 h
male, Sprague Dawley, rat, plasma, iv, 10 mg/kg, intravenous 10 mg/kg, male rats, Median
  AUC(0-inf): 2.5 µg·h/mL
male, Sprague Dawley, rat, plasma, iv, 10 mg/kg, intravenous 10 mg/kg, male rats, Median, read-out: AUC0-t
  AUC(0-t): 2.26 µg·h/mL
male, Sprague Dawley, rat, plasma, iv, 10 mg/kg, intravenous 10 mg/kg, male rats, Median, read-out: C0
  C0: 5.52 µg/mL
male, Sprague Dawley, rat, plasma, iv, 10 mg/kg, intravenous 10 mg/kg, male rats, Median, read-out: CL (converted)
  clearance: 4.09 L/h/kg
male, Sprague Dawley, rat, plasma, iv, 10 mg/kg, intravenous 10 mg/kg, male rats, Median, read-out: MRT
  MRT: 3.23 h
male, Sprague Dawley, rat, plasma, iv, 10 mg/kg, intravenous 10 mg/kg, male rats, Median, read-out: Vss
  Vd: 13.2 L/kg
male, Sprague Dawley, rat, plasma, iv, 10 mg/kg, intravenous 10 mg/kg, male rats, individual animals
  AUC(0-inf): 3.09 µg·h/mL
male, Sprague Dawley, rat, plasma, iv, 10 mg/kg, intravenous 10 mg/kg, male rats, individual animals, read-out: AUC0-t
  AUC(0-t): 3.08 µg·h/mL
male, Sprague Dawley, rat, plasma, iv, 10 mg/kg, intravenous 10 mg/kg, male rats, individual animals, read-out: C0
  C0: 5.52 µg/mL
male, Sprague Dawley, rat, plasma, iv, 10 mg/kg, intravenous 10 mg/kg, male rats, individual animals, read-out: CL (converted)
  clearance: 3.32 L/h/kg
male, Sprague Dawley, rat, plasma, iv, 10 mg/kg, intravenous 10 mg/kg, male rats, individual animals, read-out: MRT
  MRT: 3.96 h
male, Sprague Dawley, rat, plasma, iv, 10 mg/kg, intravenous 10 mg/kg, male rats, individual animals, read-out: Vss
  Vd: 13.2 L/kg
male, Sprague Dawley, rat, plasma, iv, 10 mg/kg, male rats, 0.05 h (3 min), mean of 3, read-out: Mean Concentration in plasma
  concentration at 0.05 h: 3.17 µg/mL
male, Sprague Dawley, rat, plasma, iv, 10 mg/kg, male rats, 0.05 h, individual animals, read-out: Sample Concentration in plasma
  concentration at 0.05 h: 2.53 µg/mL
[2]
  concentration at 0.1 h: 0.978 µg/mL
  concentration at 0.25 h: 0.481 µg/mL
  concentration at 0.75 h: 0.404 µg/mL
  concentration at 1.5 h: 0.274 µg/mL
  concentration at 2.5 h: 0.24 µg/mL
  concentration at 4 h: 0.179 µg/mL
  concentration at 6 h: 0.103 µg/mL
[3]
  concentration at 0.1 h: 1.1 µg/mL
  concentration at 0.25 h: 0.78 µg/mL
  concentration at 0.75 h: 0.465 µg/mL
  concentration at 1.5 h: 0.335 µg/mL
  concentration at 2.5 h: 0.251 µg/mL
  concentration at 4 h: 0.192 µg/mL
  concentration at 6 h: 0.119 µg/mL
[4]
  concentration at 8 h: 0.0623 µg/mL
  concentration at 24 h: 0.00308 µg/mL
[5]
  concentration at 8 h: 0.0812 µg/mL
  concentration at 24 h: 0.00282 µg/mL
male, Sprague Dawley, rat, plasma, po, 10 mg/kg, oral 10 mg/kg, male rats, Arithmetic Mean
  AUC(0-inf): 0.838 µg·h/mL
male, Sprague Dawley, rat, plasma, po, 10 mg/kg, oral 10 mg/kg, male rats, Arithmetic Mean, read-out: AUC0-t
  AUC(0-t): 0.518 µg·h/mL
male, Sprague Dawley, rat, plasma, po, 10 mg/kg, oral 10 mg/kg, male rats, Arithmetic Mean, read-out: Cmax
  Cmax: 0.11 µg/mL
male, Sprague Dawley, rat, plasma, po, 10 mg/kg, oral 10 mg/kg, male rats, Arithmetic Mean, read-out: MRT
  MRT: 6.83 h
male, Sprague Dawley, rat, plasma, po, 10 mg/kg, oral 10 mg/kg, male rats, Arithmetic Mean, read-out: t1/2 (converted)
  half-life: 3.3 h
male, Sprague Dawley, rat, plasma, po, 10 mg/kg, oral 10 mg/kg, male rats, Arithmetic Mean, read-out: tmax
  Tmax: 4.67 h
